Laboratory results as given in patent US4820722A, “Disubstituted tetrazoles and their use as leukotriene antagonists” (Eli Lilly and Company, priority 1987, dated 1989).

Each molecule was assayed against T1, LTD4 responses of guinea pig ileum and trachea (Cavia porcellus, UniProt Q2NNR5) (assay: LTD4 antagonism, cumulative LTD4 concentration-response curves in guinea pig ileum and trachea (KB by Furthgott method)). Details: 30 minute incubation with antagonist, Table I title names ileal contractions.
T1 sequence (Q2NNR5 1-340): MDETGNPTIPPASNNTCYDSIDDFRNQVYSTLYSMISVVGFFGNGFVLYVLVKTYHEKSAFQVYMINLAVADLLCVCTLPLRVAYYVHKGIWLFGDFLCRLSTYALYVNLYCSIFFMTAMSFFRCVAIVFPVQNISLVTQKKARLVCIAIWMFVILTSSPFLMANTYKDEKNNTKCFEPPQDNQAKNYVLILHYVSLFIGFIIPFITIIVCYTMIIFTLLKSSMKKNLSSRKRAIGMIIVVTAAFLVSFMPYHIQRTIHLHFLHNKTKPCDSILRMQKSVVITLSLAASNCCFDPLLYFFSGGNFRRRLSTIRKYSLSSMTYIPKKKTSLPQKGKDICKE
Format: cell-based, guinea pig (male Hartley)

Row | SMILES | pKB (negative log of the dissociation KB)
1 | CCCc1c(COc2ccc(Cc3nnn(CCCCCc4nnn[nH]4)n3)cc2)ccc(C(C)=O)c1O.[Na] | 7.64
2 | CCCc1c(COc2ccc(Cc3nnn(CCCN(C)C)n3)cc2)ccc(C(C)=O)c1O [Example 15, 5-[(4-((4-Acetyl-3-hydroxy-2-propylphenyl)methoxy)phenyl)methyl]-2-(3-(dimethylamino)propyl)-2H-tetrazole] | 6.65
3 | CCCc1c(COc2ccc(Cc3nnnn3CCCN(C)C)cc2)ccc(C(C)=O)c1O [Example 16, 5-[(4-((4-Acetyl-3-hydroxy-2-propylphenyl)methoxy)phenyl)methyl]-1-(3-(dimethylamino)propyl)-1H-tetrazole] | 6.01
4 | CCCc1c(COc2ccc(Cc3nnn(CCCSC)n3)cc2)ccc(C(C)=O)c1O [Example 17, 5-[(4-((4-Acetyl-3-hydroxy-2-propylphenyl)methoxy)phenyl)methyl]-2-(3-methylthiopropyl)-2H-tetrazole] | 6.45
5 | CCCc1c(COc2ccc(Cc3nnn(CCCCCCc4nnn[nH]4)n3)cc2)ccc(C(C)=O)c1O [Example 27, 1-[2-Hydroxy-3-propyl-4-[[4-[[2-[6-(1H-tetrazol-5-yl)hexyl]-2H-tetrazol-5-yl]methyl]phenoxy]methyl]phenyl]ethanone] | 7.38
6 | CCCc1c(COc2ccc(Cc3nnn(CCC(C)(C)Cc4nnn[nH]4)n3)cc2)ccc(C(C)=O)c1O [Example 28] | 7.70
7 | CCCc1c(COc2ccc(-c3nnn(CCCc4nnn[nH]4)n3)cc2)ccc(C(C)=O)c1O [Example 36] | 7.63
8 | CCCc1c(COc2ccc(-c3nnn(CCCN(C)C)n3)cc2)ccc(C(C)=O)c1O [Example 37, 1-[4-[[4-[2-[3-(Dimethylamino)propyl]-2H-tetrazol-5-yl]phenoxy]methyl]-2-hydroxy-3-propylphenyl]ethanone] | 6.37
9 | CCCc1c(COc2ccc(Cc3nnn(Cc4ccc(-c5nnn[nH]5)cc4)n3)cc2)ccc(C(C)=O)c1O [Example 38, 1-[2-Hydroxy-3-propyl-4-[[4-[[2-[[4-(1H-tetrazol-5-yl)phenyl]methyl]-2H-tetrazol-5-yl]methyl]phenoxy]methyl]phenyl]ethanone] | 7.90
10 | CCCc1c(COc2ccc(Cc3nnn(CCC[S+](C)[O-])n3)cc2)ccc(C(C)=O)c1O (stereo not shown) [Example 39, 5-[(4-((4-Acetyl-3-hydroxy-2-propylphenyl)methoxy)phenyl)methyl]-2-(3-methylsulfinylpropyl)-2H-tetrazole] | 6.50
11 | CCCc1c(COc2ccc(Cc3nnn(CCCS(C)(=O)=O)n3)cc2)ccc(C(C)=O)c1O [Example 40, 5-[(4-((4-Acetyl-3-hydroxy-2-propylphenyl)methoxy)phenyl)methyl]-2-(3-methylsulfonylpropyl)-2H-tetrazole] | 6.37

The molecules below were run on LTD4 evoked contractions of guinea pig ileum (assay: LTD4 antagonism on isolated guinea pig ileum (inhibition of LTD4 evoked ileal contractions, single submaximal LTD4 responses)). Details: Cavia porcellus, 37° C., five minute exposure to drug, 2-4 concentrations, linear regression interpolation, read-out: -log IC50 (antagonist concentration that produced 50% inhibition of the LTD4 responses) (converted).
Format: cell-based, guinea pig (male Hartley)
Experimental: Male, Hartley guinea pigs weighing 200-450 grams were killed by decapitation. A section of terminal ileum was removed, the lumen cleaned, and the tissue divided into 2.5 cm. segments. The ilea were mounted in 10 ml. tissue baths containing Krebs-bicarbonate solution of the following composition in mmoles/liter: KCl, 4.6; CaCl2 ·2H2 O, 1.2; KH2 PO4, 1.2; MgSO4 ·7H20, 1.2; NaCl, 118.2; NaHCO3, 24.8; and dextrose, 10.0. The bath fluid was maintained at 37° C. and aerated with 95 percent oxygen and 5 percent CO2. In addition, the buffer contained […] atropine to reduce ileal spontaneous activity. Isometric measurements were made with a Grass FTO3C force-displacement transducer and recorded on a Grass polygraph as change in grams of force. A passive force of 0.5 g. was applied to the tissues. After an appropriate equilibration period, single submaximal control responses to pure LTD4 were obtained. Following a five minute exposure of the ileum to an experimental drug, the control concentration of LTD4 was added to the tissue bath. The response of the ileum to LTD4 in the presence of the drug was compared to the response in the absence of the drug. Various degrees of LTD4 antagonism were obtained using 2-4 different concentrations of an experimental compound on a single ileum.

Row | SMILES | IC50 [nM]
12 | CCCc1c(COc2ccc(Cc3nnnn3Cc3nnn[nH]3)cc2)ccc(C(C)=O)c1O [Example 21] | 17.4
13 | CCCc1c(COc2ccc(Cc3nnn(Cc4nnn[nH]4)n3)cc2)ccc(C(C)=O)c1O [Example 22, 1-[2-hydroxy-3-(propyl)-4-[[4-[[2-(1H-tetra-zol-5-ylmethyl)-2H-tetrazol-5-yl]methyl]phenoxyl]methyl]phenyl]ethanone] | 11.7
14 | CCCc1c(COc2ccc(Cc3nnnn3CCCc3nnn[nH]3)cc2)ccc(C(C)=O)c1O [Example 23] | 14.1
15 | CCCc1c(COc2ccc(Cc3nnn(CCCc4nnn[nH]4)n3)cc2)ccc(C(C)=O)c1O [Example 24, 1-2[-Hydroxy-3-propyl-4[[4-[[2-[3-(1H-tetra-zol-5-yl)propyl]-2H-tetrazol-5-yl]methyl]phenoxy]methyl]phenyl]ethanone] | 3.8
16 | CCCc1c(COc2ccc(Cc3nnnn3CCCCc3nnn[nH]3)cc2)ccc(C(C)=O)c1O [Example 25] | 19.1
17 | CCCc1c(COc2ccc(Cc3nnn(CCCCc4nnn[nH]4)n3)cc2)ccc(C(C)=O)c1O [Example 26, 1-[2-Hydroxy-3-propyl-4-[[4-[[2-[4-(1H-tetrazol-5-yl)butyl]tetrazol-5-yl]methyl]phenoxy]methyl]phenyl]ethanone] | 8.13
18 | CCCc1c(COc2ccc(Cc3nnn(CC(=O)O)n3)cc2)ccc(C(C)=O)c1O [Example 31, 5-[[4-[(4-Acetyl-3-hydroxy-2-propylphenyl)methoxy]phenyl]methyl]-2H-tetrazole-2-acetic acid] | 28.2
19 | CCCc1c(COc2ccc(Cc3nnnn3CCCC(=O)O)cc2)ccc(C(C)=O)c1O [Example 32, 5-[[4-[[4-Acetyl-3-hydroxy-2-propylphenyl)methoxy]phenyl]methyl]-1H-tetrazole-1-butyric acid] | 57.5
20 | CCCc1c(COc2ccc(Cc3nnn(CCCC(=O)O)n3)cc2)ccc(C(C)=O)c1O [Example 33, 5-[(4-[(4-Acetyl-3-hydroxy-2-propylphenyl)methoxy]phenyl)methyl]-2H-tetrazole-2-butanoic acid] | 20
21 | CCCc1c(COc2ccc(Cc3nnnn3CCCCC(=O)O)cc2)ccc(C(C)=O)c1O [Example 34, 5-[(4-[(4-Acetyl-3-hydroxy-2-propylphenyl)methoxy]phenyl)methyl]-1H-tetrazol-1-valeric acid] | 55
22 | CCCc1c(COc2ccc(Cc3nnn(CCCCC(=O)O)n3)cc2)ccc(C(C)=O)c1O [Example 35, 5-[(4-[(4-Acetyl-3-hydroxy-2-propylphenyl)methoxy]phenyl)methyl]-2H-tetrazole-2-valeric acid] | 11.7
